Test results as given in patent publication US7553864B2, “Compounds for the treatment of inflammatory disorders and microbial diseases” (Schering Corporation, priority 2005, dated 2009).

Each molecule was assayed on LpxC enzyme (assay: LpxC enzyme assay (RapidFire high-throughput mass spectrometry)). Settings: concentration 0.10 (unit not given).
Format: biochemical
Summary of the method: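 0.2 nM enzyme with 1.0 μM UDP-3-O-(R-3-hydroxymyristoyl)-N-acetylglucosamine in 25 mM HEPES pH 7.3, 150 mM NaCl, 2.0 mM DTT, 0.01% BSA, 2% DMSO; 60 min at room temperature, quenched with HCl. Substrate and product quantified by RapidFire mass spectrometry; percent conversion gives percent inhibition versus DMSO control.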

Compound	LpxC enzyme assay rating (% inhibition at indicated concentrations)
CN(C)C(=O)[C@H](O)[C@@H](O)C(=O)Nc1ccc(N2CCOCC2)cc1 [Compound 54]	C (less than 10% inhibition)
CN1CCN(c2ccc(NC(=O)[C@H](O)[C@@H](O)C(=O)N(C)C)cc2)CC1 [Compound 55]	C (less than 10% inhibition)
CN(C)CCOc1ccc(NC(=O)[C@H](O)[C@@H](O)C(=O)N(C)C)cc1 [Compound 56]	C (less than 10% inhibition)
CN(C)CCCOc1ccc(NC(=O)[C@H](O)[C@@H](O)C(=O)N(C)C)cc1 [Compound 57]	B (10-30% inhibition)
CN(C)C(=O)[C@H](O)[C@@H](O)C(=O)Nc1ccc(-n2cccn2)cc1 [Compound 58]	C (less than 10% inhibition)
CN(C)C(=O)[C@H](O)[C@@H](O)C(=O)Nc1ccc(-c2cc[nH]n2)cc1 [Compound 59]	B (10-30% inhibition)
O=C(NCCCCl)[C@H](O)[C@@H](O)C(=O)Nc1ccc(C#Cc2ccccc2)cc1 [Compound 60]	C (less than 10% inhibition)
CCCc1ccc(NC(=O)[C@H](O)[C@@H](O)C(=O)NCCCCl)cc1 [Compound 61]	C (less than 10% inhibition)
O=C(NCCCCl)[C@H](O)[C@@H](O)C(=O)Nc1ccc(-n2cccn2)cc1 [Compound 62]	C (less than 10% inhibition)

Same assay, conditions: concentration 0.20 (unit not given)

Compound	LpxC enzyme assay rating (% inhibition at indicated concentrations)
CN(C)C(=O)[C@H](O)[C@@H](O)C(=O)Nc1ccc(N2CCOCC2)cc1 [Compound 54]	C (less than 10% inhibition)
CN1CCN(c2ccc(NC(=O)[C@H](O)[C@@H](O)C(=O)N(C)C)cc2)CC1 [Compound 55]	B (10-30% inhibition)
CN(C)CCOc1ccc(NC(=O)[C@H](O)[C@@H](O)C(=O)N(C)C)cc1 [Compound 56]	B (10-30% inhibition)
CN(C)CCCOc1ccc(NC(=O)[C@H](O)[C@@H](O)C(=O)N(C)C)cc1 [Compound 57]	C (less than 10% inhibition)
CN(C)C(=O)[C@H](O)[C@@H](O)C(=O)Nc1ccc(-n2cccn2)cc1 [Compound 58]	B (10-30% inhibition)
CN(C)C(=O)[C@H](O)[C@@H](O)C(=O)Nc1ccc(-c2cc[nH]n2)cc1 [Compound 59]	C (less than 10% inhibition)
O=C(NCCCCl)[C@H](O)[C@@H](O)C(=O)Nc1ccc(C#Cc2ccccc2)cc1 [Compound 60]	C (less than 10% inhibition)
CCCc1ccc(NC(=O)[C@H](O)[C@@H](O)C(=O)NCCCCl)cc1 [Compound 61]	C (less than 10% inhibition)
O=C(NCCCCl)[C@H](O)[C@@H](O)C(=O)Nc1ccc(-n2cccn2)cc1 [Compound 62]	C (less than 10% inhibition)

Same assay, conditions: concentration 0.39 (unit not given)

Compound	LpxC enzyme assay rating (% inhibition at indicated concentrations)
CN(C)C(=O)[C@H](O)[C@@H](O)C(=O)Nc1ccc(N2CCOCC2)cc1 [Compound 54]	C (less than 10% inhibition)
CN1CCN(c2ccc(NC(=O)[C@H](O)[C@@H](O)C(=O)N(C)C)cc2)CC1 [Compound 55]	C (less than 10% inhibition)
CN(C)CCOc1ccc(NC(=O)[C@H](O)[C@@H](O)C(=O)N(C)C)cc1 [Compound 56]	C (less than 10% inhibition)
CN(C)CCCOc1ccc(NC(=O)[C@H](O)[C@@H](O)C(=O)N(C)C)cc1 [Compound 57]	B (10-30% inhibition)
CN(C)C(=O)[C@H](O)[C@@H](O)C(=O)Nc1ccc(-n2cccn2)cc1 [Compound 58]	C (less than 10% inhibition)
CN(C)C(=O)[C@H](O)[C@@H](O)C(=O)Nc1ccc(-c2cc[nH]n2)cc1 [Compound 59]	B (10-30% inhibition)
O=C(NCCCCl)[C@H](O)[C@@H](O)C(=O)Nc1ccc(C#Cc2ccccc2)cc1 [Compound 60]	B (10-30% inhibition)
CCCc1ccc(NC(=O)[C@H](O)[C@@H](O)C(=O)NCCCCl)cc1 [Compound 61]	C (less than 10% inhibition)
O=C(NCCCCl)[C@H](O)[C@@H](O)C(=O)Nc1ccc(-n2cccn2)cc1 [Compound 62]	C (less than 10% inhibition)

Same assay, conditions: concentration 0.78 (unit not given)

Compound	LpxC enzyme assay rating (% inhibition at indicated concentrations)
CN(C)C(=O)[C@H](O)[C@@H](O)C(=O)Nc1ccc(N2CCOCC2)cc1 [Compound 54]	C (less than 10% inhibition)
CN1CCN(c2ccc(NC(=O)[C@H](O)[C@@H](O)C(=O)N(C)C)cc2)CC1 [Compound 55]	B (10-30% inhibition)
CN(C)CCOc1ccc(NC(=O)[C@H](O)[C@@H](O)C(=O)N(C)C)cc1 [Compound 56]	C (less than 10% inhibition)
CN(C)CCCOc1ccc(NC(=O)[C@H](O)[C@@H](O)C(=O)N(C)C)cc1 [Compound 57]	C (less than 10% inhibition)
CN(C)C(=O)[C@H](O)[C@@H](O)C(=O)Nc1ccc(-n2cccn2)cc1 [Compound 58]	B (10-30% inhibition)
CN(C)C(=O)[C@H](O)[C@@H](O)C(=O)Nc1ccc(-c2cc[nH]n2)cc1 [Compound 59]	C (less than 10% inhibition)
O=C(NCCCCl)[C@H](O)[C@@H](O)C(=O)Nc1ccc(C#Cc2ccccc2)cc1 [Compound 60]	B (10-30% inhibition)
CCCc1ccc(NC(=O)[C@H](O)[C@@H](O)C(=O)NCCCCl)cc1 [Compound 61]	C (less than 10% inhibition)
O=C(NCCCCl)[C@H](O)[C@@H](O)C(=O)Nc1ccc(-n2cccn2)cc1 [Compound 62]	C (less than 10% inhibition)

Same assay, conditions: concentration 1.56 (unit not given)

Compound	LpxC enzyme assay rating (% inhibition at indicated concentrations)
CN(C)C(=O)[C@H](O)[C@@H](O)C(=O)Nc1ccc(N2CCOCC2)cc1 [Compound 54]	C (less than 10% inhibition)
CN1CCN(c2ccc(NC(=O)[C@H](O)[C@@H](O)C(=O)N(C)C)cc2)CC1 [Compound 55]	B (10-30% inhibition)
CN(C)CCOc1ccc(NC(=O)[C@H](O)[C@@H](O)C(=O)N(C)C)cc1 [Compound 56]	C (less than 10% inhibition)
CN(C)CCCOc1ccc(NC(=O)[C@H](O)[C@@H](O)C(=O)N(C)C)cc1 [Compound 57]	C (less than 10% inhibition)
CN(C)C(=O)[C@H](O)[C@@H](O)C(=O)Nc1ccc(-n2cccn2)cc1 [Compound 58]	C (less than 10% inhibition)
CN(C)C(=O)[C@H](O)[C@@H](O)C(=O)Nc1ccc(-c2cc[nH]n2)cc1 [Compound 59]	C (less than 10% inhibition)
O=C(NCCCCl)[C@H](O)[C@@H](O)C(=O)Nc1ccc(C#Cc2ccccc2)cc1 [Compound 60]	C (less than 10% inhibition)
CCCc1ccc(NC(=O)[C@H](O)[C@@H](O)C(=O)NCCCCl)cc1 [Compound 61]	C (less than 10% inhibition)
O=C(NCCCCl)[C@H](O)[C@@H](O)C(=O)Nc1ccc(-n2cccn2)cc1 [Compound 62]	B (10-30% inhibition)

Same assay, conditions: concentration 3.13 (unit not given)

Compound	LpxC enzyme assay rating (% inhibition at indicated concentrations)
CN(C)C(=O)[C@H](O)[C@@H](O)C(=O)Nc1ccc(N2CCOCC2)cc1 [Compound 54]	B (10-30% inhibition)
CN1CCN(c2ccc(NC(=O)[C@H](O)[C@@H](O)C(=O)N(C)C)cc2)CC1 [Compound 55]	B (10-30% inhibition)
CN(C)CCOc1ccc(NC(=O)[C@H](O)[C@@H](O)C(=O)N(C)C)cc1 [Compound 56]	C (less than 10% inhibition)
CN(C)CCCOc1ccc(NC(=O)[C@H](O)[C@@H](O)C(=O)N(C)C)cc1 [Compound 57]	C (less than 10% inhibition)
CN(C)C(=O)[C@H](O)[C@@H](O)C(=O)Nc1ccc(-n2cccn2)cc1 [Compound 58]	B (10-30% inhibition)
CN(C)C(=O)[C@H](O)[C@@H](O)C(=O)Nc1ccc(-c2cc[nH]n2)cc1 [Compound 59]	C (less than 10% inhibition)
O=C(NCCCCl)[C@H](O)[C@@H](O)C(=O)Nc1ccc(C#Cc2ccccc2)cc1 [Compound 60]	B (10-30% inhibition)
CCCc1ccc(NC(=O)[C@H](O)[C@@H](O)C(=O)NCCCCl)cc1 [Compound 61]	C (less than 10% inhibition)
O=C(NCCCCl)[C@H](O)[C@@H](O)C(=O)Nc1ccc(-n2cccn2)cc1 [Compound 62]	C (less than 10% inhibition)

Same assay, conditions: concentration 6.25 (unit not given)

Compound	LpxC enzyme assay rating (% inhibition at indicated concentrations)
CN(C)C(=O)[C@H](O)[C@@H](O)C(=O)Nc1ccc(N2CCOCC2)cc1 [Compound 54]	C (less than 10% inhibition)
CN1CCN(c2ccc(NC(=O)[C@H](O)[C@@H](O)C(=O)N(C)C)cc2)CC1 [Compound 55]	C (less than 10% inhibition)
CN(C)CCOc1ccc(NC(=O)[C@H](O)[C@@H](O)C(=O)N(C)C)cc1 [Compound 56]	B (10-30% inhibition)
CN(C)CCCOc1ccc(NC(=O)[C@H](O)[C@@H](O)C(=O)N(C)C)cc1 [Compound 57]	C (less than 10% inhibition)
CN(C)C(=O)[C@H](O)[C@@H](O)C(=O)Nc1ccc(-n2cccn2)cc1 [Compound 58]	B (10-30% inhibition)
CN(C)C(=O)[C@H](O)[C@@H](O)C(=O)Nc1ccc(-c2cc[nH]n2)cc1 [Compound 59]	C (less than 10% inhibition)
O=C(NCCCCl)[C@H](O)[C@@H](O)C(=O)Nc1ccc(C#Cc2ccccc2)cc1 [Compound 60]	B (10-30% inhibition)
CCCc1ccc(NC(=O)[C@H](O)[C@@H](O)C(=O)NCCCCl)cc1 [Compound 61]	C (less than 10% inhibition)
O=C(NCCCCl)[C@H](O)[C@@H](O)C(=O)Nc1ccc(-n2cccn2)cc1 [Compound 62]	B (10-30% inhibition)

Same assay, conditions: concentration 12.50 (unit not given)

Compound	LpxC enzyme assay rating (% inhibition at indicated concentrations)
CN(C)C(=O)[C@H](O)[C@@H](O)C(=O)Nc1ccc(N2CCOCC2)cc1 [Compound 54]	C (less than 10% inhibition)
CN1CCN(c2ccc(NC(=O)[C@H](O)[C@@H](O)C(=O)N(C)C)cc2)CC1 [Compound 55]	C (less than 10% inhibition)
CN(C)CCOc1ccc(NC(=O)[C@H](O)[C@@H](O)C(=O)N(C)C)cc1 [Compound 56]	C (less than 10% inhibition)
CN(C)CCCOc1ccc(NC(=O)[C@H](O)[C@@H](O)C(=O)N(C)C)cc1 [Compound 57]	C (less than 10% inhibition)
CN(C)C(=O)[C@H](O)[C@@H](O)C(=O)Nc1ccc(-n2cccn2)cc1 [Compound 58]	B (10-30% inhibition)
CN(C)C(=O)[C@H](O)[C@@H](O)C(=O)Nc1ccc(-c2cc[nH]n2)cc1 [Compound 59]	C (less than 10% inhibition)
O=C(NCCCCl)[C@H](O)[C@@H](O)C(=O)Nc1ccc(C#Cc2ccccc2)cc1 [Compound 60]	B (10-30% inhibition)
CCCc1ccc(NC(=O)[C@H](O)[C@@H](O)C(=O)NCCCCl)cc1 [Compound 61]	C (less than 10% inhibition)
O=C(NCCCCl)[C@H](O)[C@@H](O)C(=O)Nc1ccc(-n2cccn2)cc1 [Compound 62]	B (10-30% inhibition)

Same assay, conditions: concentration 25 (unit not given)

Compound	LpxC enzyme assay rating (% inhibition at indicated concentrations)
CN(C)C(=O)[C@H](O)[C@@H](O)C(=O)Nc1ccc(N2CCOCC2)cc1 [Compound 54]	C (less than 10% inhibition)
CN1CCN(c2ccc(NC(=O)[C@H](O)[C@@H](O)C(=O)N(C)C)cc2)CC1 [Compound 55]	B (10-30% inhibition)
CN(C)CCOc1ccc(NC(=O)[C@H](O)[C@@H](O)C(=O)N(C)C)cc1 [Compound 56]	C (less than 10% inhibition)
CN(C)CCCOc1ccc(NC(=O)[C@H](O)[C@@H](O)C(=O)N(C)C)cc1 [Compound 57]	B (10-30% inhibition)
CN(C)C(=O)[C@H](O)[C@@H](O)C(=O)Nc1ccc(-n2cccn2)cc1 [Compound 58]	C (less than 10% inhibition)
CN(C)C(=O)[C@H](O)[C@@H](O)C(=O)Nc1ccc(-c2cc[nH]n2)cc1 [Compound 59]	B (10-30% inhibition)
O=C(NCCCCl)[C@H](O)[C@@H](O)C(=O)Nc1ccc(C#Cc2ccccc2)cc1 [Compound 60]	C (less than 10% inhibition)
CCCc1ccc(NC(=O)[C@H](O)[C@@H](O)C(=O)NCCCCl)cc1 [Compound 61]	B (10-30% inhibition)
O=C(NCCCCl)[C@H](O)[C@@H](O)C(=O)Nc1ccc(-n2cccn2)cc1 [Compound 62]	B (10-30% inhibition)

Same assay, conditions: concentration 50 (unit not given)

Compound	LpxC enzyme assay rating (% inhibition at indicated concentrations)
CN(C)C(=O)[C@H](O)[C@@H](O)C(=O)Nc1ccc(N2CCOCC2)cc1 [Compound 54]	C (less than 10% inhibition)
CN1CCN(c2ccc(NC(=O)[C@H](O)[C@@H](O)C(=O)N(C)C)cc2)CC1 [Compound 55]	B (10-30% inhibition)
CN(C)CCOc1ccc(NC(=O)[C@H](O)[C@@H](O)C(=O)N(C)C)cc1 [Compound 56]	C (less than 10% inhibition)
CN(C)CCCOc1ccc(NC(=O)[C@H](O)[C@@H](O)C(=O)N(C)C)cc1 [Compound 57]	C (less than 10% inhibition)
CN(C)C(=O)[C@H](O)[C@@H](O)C(=O)Nc1ccc(-n2cccn2)cc1 [Compound 58]	B (10-30% inhibition)
CN(C)C(=O)[C@H](O)[C@@H](O)C(=O)Nc1ccc(-c2cc[nH]n2)cc1 [Compound 59]	C (less than 10% inhibition)
O=C(NCCCCl)[C@H](O)[C@@H](O)C(=O)Nc1ccc(C#Cc2ccccc2)cc1 [Compound 60]	C (less than 10% inhibition)
CCCc1ccc(NC(=O)[C@H](O)[C@@H](O)C(=O)NCCCCl)cc1 [Compound 61]	B (10-30% inhibition)
O=C(NCCCCl)[C@H](O)[C@@H](O)C(=O)Nc1ccc(-n2cccn2)cc1 [Compound 62]	C (less than 10% inhibition)
